# Test results taken from US11154529B2, “Phosphaplatin liquid formulations” (Phosplatin Therapeutics Inc., priority 2016, dated 2021).
# Test: Ready-to-use formulation stability at 25° C./60% RH, 5 mg/mL (R,R)-pyrodach-2 in 10 mM Potassium Phosphate Buffer at pH 7.4, 10 mL vials
# Type: physicochemical
# Experimental: A scalable and commercially viable process for the manufacture of a ready-to-use formulation of (R,R)-pyrodach-2 in 10 mM buffer adjusted to a pH of 7.0-7.5 comprises the steps of: a) preparing a 10 mM aqueous solution of buffer; b) adding sufficient hydroxide base to effect neutralization of the added (R,R)-pyrodach-2 to reach a pH of about 7; c) adding (R,R)-pyrodach-2 and allowing it to dissolve; d) if necessary adding additional hydroxide to adjust the pH into a range of about 7.0-7.5; and e) filtering the solution under sterile conditions, filling the solution into glass vials, and covering it with a stopper and/or a cap. Stability data on two large batches of 5 mg/mL (R,R)-pyrodach-2 in 10 mM potassium phosphate buffer were generated. One such batch at pH=7.2 was evaluated at both 25° C./60% RH and refrigerated (2-8° C.) conditions, with data summarized in Table 4 and Table 5, respectively. […] Similar observations have been made for the ready-to-use liquid formulation at pH7.4, as illustrated in Table 6 and Table 7.
# • Transfer 4564.6 mg±0.5 mg of potassium phosphate dibasic, trihydrate to a 2-L volumetric flask. • Fill flask to approximately 75% volume with water, swirl as needed to dissolve all solids. • Volumetrically transfer 32.0 mL of 1N KOH to flask. • Dilute flask to volume with water and mix well. • Record pH of final solution. This is the diluent. • Transfer 7653.1 mg±0.5 mg of (R,R)-pyrodach-2 to a compounding vessel. • Transfer 1500 mL of the diluent to the vessel and stir to dissolve solids. • Record pH of final solution. • Pass entire solution through a 0.22 μm sterile filter membrane into a sterile collection vessel. • Calculate (R,R)-pyrodach-2 solution concentration
# To a […] glass beaker equipped with mechanical mixer was add 24645.5 g of sterile water for injection. With agitation 47.03 gm of dibasic potassium phosphate USP was added and the solids allowed to dissolve. To the stirred solution was added 253.8 gm of 1.00 N potassium hydroxide. Sterile water for injection USP (900.0 gm) was used as a rinse to facilitate both additions. With vigorous agitation, (R,R)-pyrodach-2 (201.87 gm) was slowly added and agitation continued until all of the solids dissolved. Sterile water for injection USP (900.0 gm) was used as a rinse to facilitate the addition. The pH was determined to be 6.7. A total of 85 mL of 1.00 N potassium hydroxide was added in 5.0 mL aliquots to adjust the pH to 7.3. The solution was sterile filtered through 0.22μ Millipore Millipack filter and aseptically filled, 10 ml top a vial in 10 mL in 10 cc Wheaton clear molded vails, stoppered with a 20 mm stopper and crimp seal capped.
smiles,measurement,setting,value
"O=P1(O)OP(=O)(O)[O][Pt]2([NH][C@@H]3CCCC[C@H]3[NH]2)[O]1 (stereo partly drawn) [(R,R)-pyrodach-2, (R,R)-trans-1,2-cyclohexanediamine-(dihydrogenpyrophosphato)platinum(II)]",(DACH) Pt-diaquo (~RRT 0.3),1 Month,0.16%
same,(DACH) Pt-monoaquo (~RRT 0.7),1 Month,1.12%
same,Assay (Potency),1 Month,98.4%
same,PT-112 Dimer (~RRT 4.0),1 Month,0.35%
same,RRT 0.50,1 Month,0.07%
same,RRT 0.56,1 Month,0.15%
same,RRT 0.68,1 Month,0.21%
same,RRT 0.86,1 Month,0.06%
same,RRT 3.1-3.2,1 Month,0.56%
same,Total Related Substances,1 Month,3%
same,pH,1 Month,7.4
same,(DACH) Pt-diaquo (~RRT 0.3),3 Month,0.15%
same,(DACH) Pt-monoaquo (~RRT 0.7),3 Month,0.92%
same,Assay (Potency),3 Month,99.2%
same,PT-112 Dimer (~RRT 4.0),3 Month,0.33%
same,RRT 0.50,3 Month,0.11%
same,RRT 0.56,3 Month,0.20%
same,RRT 0.68,3 Month,0.11%
same,RRT 0.86,3 Month,0.05%
same,RRT 3.1-3.2,3 Month,0.77%
same,RRT 3.58,3 Month,0.14%
same,Total Related Substances,3 Month,3%
same,pH,3 Month,7.4
same,(DACH) Pt-diaquo (~RRT 0.3),6 Month,0.19%
same,(DACH) Pt-monoaquo (~RRT 0.7),6 Month,0.30%
same,Assay (Potency),6 Month,96.7%
same,PT-112 Dimer (~RRT 4.0),6 Month,0.36%
same,RRT 0.42,6 Month,0.06%
same,RRT 0.46,6 Month,0.09%
same,RRT 0.50,6 Month,0.31%
same,RRT 0.56,6 Month,0.09%
same,RRT 0.68,6 Month,0.16%
same,RRT 0.86,6 Month,0.07%
same,RRT 3.1-3.2,6 Month,0.86%
same,RRT 3.58,6 Month,0.37%
same,RRT 4.95,6 Month,0.06%
same,Total Related Substances,6 Month,3%
same,pH,6 Month,7.4
same,Particulate Matter (Light Obscuration),"6 Month, first value",87 particles particles per container
same,Particulate Matter (Light Obscuration),"6 Month, second value",3 particles particles per container
same,(DACH) Pt-diaquo (~RRT 0.3),9 Month,0.14%
same,(DACH) Pt-monoaquo (~RRT 0.7),9 Month,0.79%
same,Assay (Potency),9 Month,98.2%
same,PT-112 Dimer (~RRT 4.0),9 Month,0.34%
same,RRT 0.42,9 Month,0.08%
same,RRT 0.46,9 Month,0.08%
same,RRT 0.50,9 Month,0.39%
same,RRT 0.56,9 Month,0.11%
same,RRT 0.68,9 Month,0.11%
same,RRT 0.86,9 Month,0.06%
same,RRT 3.1-3.2,9 Month,0.84%
same,RRT 3.41,9 Month,0.08%
same,RRT 3.58,9 Month,0.65%
same,RRT 4.95,9 Month,0.21%
same,Total Related Substances,9 Month,4%
same,pH,9 Month,7.4
same,(DACH) Pt-diaquo (~RRT 0.3),12 Month,0.11%
same,(DACH) Pt-monoaquo (~RRT 0.7),12 Month,0.92%
same,Assay (Potency),12 Month,98.0%
same,PT-112 Dimer (~RRT 4.0),12 Month,0.30%
same,RRT 0.42,12 Month,0.10%
same,RRT 0.46,12 Month,0.07%
same,RRT 0.50,12 Month,0.38%
same,RRT 0.56,12 Month,0.19%
same,RRT 0.68,12 Month,0.11%
same,RRT 0.86,12 Month,0.05%
same,RRT 3.1-3.2,12 Month,0.82%
same,RRT 3.58,12 Month,0.70%
same,RRT 4.95,12 Month,0.34%
same,Total Related Substances,12 Month,4%
same,pH,12 Month,7.5
same,Particulate Matter (Light Obscuration),"12 Month, first value",118 particles per container
same,Particulate Matter (Light Obscuration),"12 Month, second value",7 particles particles per container
same,(DACH) Pt-diaquo (~RRT 0.3),15 Month,0.13%
